Laboratory results published in PubChem BioAssay (NCI).
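These data come from cells grown in 96-well plates and exposed to compound for 48 hours at five concentrations. GI50 marks 50% less growth. TGI denotes the concentration required for complete inhibition of growth.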

Columns and labels:
Assay in all cases: DTP human tumour cell line panel, 48 h; in the data active = GI50 below about 0.43 µM; inactive = the rest
[1] = tested on: COLO 205 colon
[2] = tested on: NCI-H23 lung
[3] = tested on: LOX IMVI melanoma
[4] = tested on: BT-549 breast
[5] = tested on: NCI-H460 lung
[6] = tested on: MDA-MB-231 breast
[7] = tested on: SN12C renal
[8] = tested on: TK-10 renal
[9] = tested on: SK-MEL-5 melanoma
[10] = tested on: HL-60(TB) leukemia
[11] = tested on: SF-539 CNS
[12] = tested on: HS 578T breast
[13] = tested on: M14 melanoma
[14] = tested on: 786-0 renal
[15] = tested on: RXF 393 renal
[16] = tested on: SNB-19 CNS
[17] = tested on: HOP-62 NSCLC
[18] = tested on: K-562 leukemia
[19] = tested on: OVCAR-4 ovarian
[20] = tested on: ACHN renal
[21] = tested on: UO-31 renal
[22] = tested on: CAKI-1 renal
[23] = tested on: HOP-92 NSCLC
[24] = tested on: HT29 colon
[25] = tested on: MDA-MB-468 breast
[26] = tested on: MALME-3M melanoma
[27] = tested on: CCRF-CEM leukemia
[28] = tested on: UACC-257 melanoma
[29] = tested on: UACC-62 melanoma
[30] = tested on: HCC-2998 colon
[31] = tested on: MOLT-4 leukemia
[32] = tested on: PC-3 prostate
[33] = tested on: U251 CNS
[34] = tested on: SK-OV-3 ovarian
[35] = tested on: SK-MEL-2 melanoma
[36] = tested on: OVCAR-8 ovarian
[37] = tested on: DU-145 prostate
[38] = tested on: SF-268 CNS
[39] = tested on: SW-620 colon
[40] = tested on: HCT-15 colon
[41] = tested on: RPMI-8226 leukemia
[42] = tested on: OVCAR-3 ovarian
[43] = tested on: HCT-116 colon
[44] = tested on: MDA-MB-435
[45] = tested on: A498 renal
[46] = tested on: EKVX NSCLC
[47] = tested on: NCI-H226 lung
[48] = tested on: SF-295 CNS
[49] = tested on: OVCAR-5 ovarian
[50] = tested on: SK-MEL-28 melanoma
[51] = tested on: SR leukemia
[52] = tested on: IGROV1 ovarian
[53] = tested on: A549 NSCLC
[54] = tested on: KM12 colon
[55] = tested on: NCI-H522 lung
[56] = tested on: MCF7 breast

Cc1ccc2nc(COc3ccc(C(=O)NNC(=O)Nc4ccc(Cl)c(C(F)(F)F)c4)cc3)[nH]c2c1
54.1 µM: TGI [34]
25.9 µM: TGI [48]
5.06 µM: TGI [26]
17.9 µM: TGI [33]
71.1 µM: TGI [53]
36.9 µM: TGI [39]
27.2 µM: TGI [52]
36.2 µM: TGI [32]
19.8 µM: TGI [29]
20.1 µM: TGI [11]
inactive: GI50 [1] 21.7 µM | GI50 [2] 10.8 µM | GI50 [3] 4.04 µM | GI50 [4] 13 µM | GI50 [5] 7.24 µM | GI50 [6] 6.31 µM | GI50 [7] 10.3 µM | GI50 [8] 49.4 µM | GI50 [9] 11.8 µM | GI50 [10] > 100 µM | GI50 [11] 4 µM | GI50 [12] 2.98 µM | GI50 [13] 8.45 µM | GI50 [14] 14.6 µM | GI50 [15] 6.32 µM | GI50 [16] 5.59 µM | GI50 [17] 5.68 µM | GI50 [18] 6.1 µM | GI50 [19] 18 µM | GI50 [20] 27.4 µM | GI50 [21] > 100 µM | GI50 [22] 21 µM | GI50 [23] 5.38 µM | GI50 [24] 19.5 µM | GI50 [25] 2.77 µM | GI50 [26] 2.06 µM | GI50 [27] 51.2 µM | GI50 [28] 5.11 µM | GI50 [29] 5.31 µM | GI50 [30] 28.8 µM | GI50 [31] 21.6 µM | GI50 [32] 6.71 µM | GI50 [33] 4.13 µM | GI50 [34] 21.2 µM | GI50 [35] 15.9 µM | GI50 [36] 5.54 µM | GI50 [37] 30.4 µM | GI50 [38] 6.57 µM | GI50 [39] 10.7 µM | GI50 [40] 49.1 µM | GI50 [41] 49.8 µM | GI50 [42] 24.2 µM | GI50 [43] 45.1 µM | GI50 [44] 5.08 µM | GI50 [45] 75.9 µM | GI50 [46] 41.8 µM | GI50 [47] 12.2 µM | GI50 [48] 12.3 µM | GI50 [49] 26.6 µM | GI50 [50] 2.94 µM | GI50 [51] 8.46 µM | GI50 [52] 9.96 µM | GI50 [53] 7.96 µM | GI50 [54] 29.5 µM | GI50 [55] 13.8 µM | GI50 [56] 3.61 µM
71.8 µM: TGI [1]
7.77 µM: TGI [25]
21.6 µM: TGI [17]
50 µM: TGI [7]
23.4 µM: TGI [5]
24 µM: TGI [23]
29.7 µM: TGI [2]
53.9 µM: TGI [12]
18.7 µM: TGI [3]
39.7 µM: TGI [47] | TGI [55]
66.8 µM: TGI [19]
88.1 µM: TGI [4]
22 µM: TGI [15]
84.9 µM: TGI [24]
36.5 µM: TGI [44]
58 µM: TGI [28]
17.2 µM: TGI [56]
44.7 µM: TGI [35]
9.25 µM: TGI [50]
47.9 µM: TGI [36]
19.9 µM: TGI [16]
26 µM: TGI [6]
41.6 µM: TGI [14]
> 100 µM: TGI [8] | TGI [10] | TGI [13] | TGI [18] | TGI [20] | TGI [21] | TGI [27] | TGI [30] | TGI [31] | TGI [37] | TGI [38] | TGI [40] | TGI [41] | TGI [42] | TGI [43] | TGI [45] | TGI [46] | TGI [49] | TGI [51] | TGI [54]
28.4 µM: TGI [9]
64.2 µM: TGI [22]
